{"source": "patent EP3521435A1", "about": "“A HIGH STRINGENCY SELECTION SYSTEM FOR PROTEIN EXPRESSION IN PROLINE-AUXOTROPHIC CELLS” (Bayer AG, priority 2018, dated 2019)", "key": {"[1]": {"tested_on": "CHO-K1 cells", "assay": "Flow cytometric analysis of GFP expression (MFI, high fluorescing cells) in stably selected cell populations", "assay_type": "cell-based, Chinese hamster", "conditions": "day 15 post-transfection, pJF1555", "protocol": "(§1) To efficiently test the impact of different procedures on improving selection stringency, experimental testing in stable cell populations was performed. As test molecules, enhanced green fluorescent protein (GFP) as well as a human IgG1 were chosen. CHO-K1 cells adapted to growth in suspension in defined medium were obtained from SAFC and cultivated in EX-CELL CD CHO Fusion medium (SAFC 14365C). Custom-made EX-CELL CD CHO Fusion medium without L-Proline (Pro) and without L-Ornithine (Orn) (\"proline-free medium\") was obtained from SAFC. The expression vector system was based on modified versions of \"CET 1019 AS-puro-SceI\" and \"CET 1019 AD-puro-SceI\" for GFP and human IgG1, respectively, from Merck-Millipore, containing the Puromycin selection marker (Puromycin N-acetyl-transferase) known to exert a high selection stringency. To minimize variations in cell populations derived from using different transfections or different vectors, the first series of experiments were conducted using vectors into which a P5CS expression cassette was cloned upstream of a UCOE element, in addition to the Puromycin selection marker present downstream of a gene of interest. This way, it was possible to pool different transfections using the same vector to obtain a common starting point, and split the mixture according to different selection conditions, minimizing any variations that are not due to selection conditions themselves. Expression of long and short isoform of murine P5CS (Protein: Delta-1-pyrroline-5-carboxylate synthase; Gene: Aldh18a1; UniProtKB accession number: Q9Z110-1 & Q9Z110-2) was driven by a SV40 promoter. A SV40 polyadenylation sequence was used at the 3' end of the gene. More details can be found in Table 1. Typically, CHO cells were cultivated in EX-CELL CD CHO Fusion medium containing 6 mM GlutaMAX (Thermo Fisher, 35050-38) (\"CD-Fusion medium\") at 37 °C with 5% CO2. Cells were grown to logarithmic phase under shaking conditions for transfections. 1e7 cells/cuvette were transfected using nucleofection (Amaxa Nucleofector II, following the manufacturer's recommendations) with 5 µg of linearized DNA. After transfection, cells were taken up in 1 ml medium and transferred into 1 well of a 6 well microtiter plate (MTP) already containing 1 ml medium. The cells were incubated for 24 h without shaking, after which 9 ml medium were added and cells were washed (either in standard or proline-free medium). Multiple transfections were pooled, if applicable. Cells were adjusted to 2e5 viable cells/ml and 10 ml were transferred to T-25 flasks. Reference cell populations were selected using 10 µg/ml Puromycin in CD-Fusion medium. For P5CS-based selection, EX-CELL CD CHO Fusion medium (custom-made, SAFC) containing 6 mM GlutaMAX without proline and without ornithine was used (\"proline-free\" or \"CD-Fusion w/o Pro\" medium), with or without additional selection pressure.\n(§2) Cell viability of the different populations was monitored over time. As soon as cell populations appeared to recover from selection pressure, cells were transferred to Shake Flask or TubeSpins for expansion in suspension under shaking conditions. Subsequently, stable cell populations transfected with IgG were seeded at 2e5 viable cells/ml for batch fermentation without selection pressure (i.e. standard CD-Fusion medium containing proline and no other selective agents). The cells were cultivated for 5-10 days, viable cell densities and productivity were monitored over time. IgG titers were determined using Poros A-HPLC method. Typically, final batch titers were recorded at a time point at which majority of cultures had around 70% viability. Stable cell populations transfected with GFP vector were subjected to analysis by flow cytometry using Guava easyCyte 8HT Benchtop Flow Cytometer (Millipore). 250 µl of cell culture were transferred to 96 MTP and washed with PBS. Dead cells were excluded from analysis using propidium iodide (PI). […]"}, "[2]": {"tested_on": "CHO-K1 cells", "assay": "Batch fermentation in shake flasks of human IgG1 expressing stable cell populations (Poros A-HPLC titer, viable cell density, viability)", "assay_type": "cell-based, Chinese hamster", "conditions": "human IgG1, pJF1576, non-selecting conditions", "protocol": "as §1, §2"}, "[3]": {"conditions": "CD-Fusion w/o Pro + 0.2 mM Orn + 10 µg/ml Puromycin"}, "[4]": {"conditions": "CD-Fusion w/o Pro + 1 mM Orn + 10 µg/ml Puromycin"}, "[5]": {"conditions": "CD-Fusion w/o Pro + 5 mM Orn + 10 µg/ml Puromycin"}}, "data": [{"smiles": "NCCC[C@H](N)C(=O)O", "note": "[Orn, L-Ornithine]", "values": [{"measurement": "Frequency of high fluorescing cells", "setting": "[1]; CD-Fusion w/o Pro + 0.2 mM Orn", "value": 2.4, "unit": "%"}, {"measurement": "Median Fluorescence Intensity (MFI) (yellow)", "setting": "[1]; CD-Fusion w/o Pro + 0.2 mM Orn", "value": 3337}, {"measurement": "Frequency of high fluorescing cells", "setting": "[1]; [3]", "value": 4.1, "unit": "%"}, {"measurement": "Median Fluorescence Intensity (MFI) (yellow)", "setting": "[1]; [3]", "value": 4665}, {"measurement": "Frequency of high fluorescing cells", "setting": "[1]; CD-Fusion w/o Pro + 0.25 mM Ornithine", "value": 6.3, "unit": "%"}, {"measurement": "Frequency of high fluorescing cells", "setting": "[1]; CD-Fusion w/o Pro + 0.5 mM Ornithine", "value": 4.1, "unit": "%"}, {"measurement": "Frequency of high fluorescing cells", "setting": "[1]; CD-Fusion w/o Pro + 1 mM Orn", "value": 2.4, "unit": "%"}, {"measurement": "Median Fluorescence Intensity (MFI) (yellow)", "setting": "[1]; CD-Fusion w/o Pro + 1 mM Orn", "value": 3121}, {"measurement": "Frequency of high fluorescing cells", "setting": "[1]; [4]", "value": 2.8, "unit": "%"}, {"measurement": "Median Fluorescence Intensity (MFI) (yellow)", "setting": "[1]; [4]", "value": 3739}, {"measurement": "Frequency of high fluorescing cells", "setting": "[1]; CD-Fusion w/o Pro + 1 mM Ornithine", "value": 2.3, "unit": "%"}, {"measurement": "Frequency of high fluorescing cells", "setting": "[1]; CD-Fusion w/o Pro + 2 mM Ornithine", "value": 0.7, "unit": "%"}, {"measurement": "Frequency of high fluorescing cells", "setting": "[1]; CD-Fusion w/o Pro + 3 mM Ornithine", "value": 2.6, "unit": "%"}, {"measurement": "Frequency of high fluorescing cells", "setting": "[1]; CD-Fusion w/o Pro + 4 mM Ornithine", "value": 1.5, "unit": "%"}, {"measurement": "Frequency of high fluorescing cells", "setting": "[1]; CD-Fusion w/o Pro + 5 mM Orn", "value": 0.5, "unit": "%"}, {"measurement": "Median Fluorescence Intensity (MFI) (yellow)", "setting": "[1]; CD-Fusion w/o Pro + 5 mM Orn", "value": 1435}, {"measurement": "Frequency of high fluorescing cells", "setting": "[1]; [5]", "value": 6.1, "unit": "%"}, {"measurement": "Median Fluorescence Intensity (MFI) (yellow)", "setting": "[1]; [5]", "value": 4103}, {"measurement": "Frequency of high fluorescing cells", "setting": "[1]; CD-Fusion w/o Pro + 5 mM Ornithine", "value": 1.7, "unit": "%"}, {"measurement": "Batch titer day 7", "setting": "[2]; selected in CD-Fusion w/o Pro + 0.2 mM Orn + 10 µg/ml Puromycin", "value": 173, "unit": "mg/L"}, {"measurement": "Batch titer day 7", "setting": "[2]; selected in CD-Fusion w/o Pro + 0.2 mM Orn", "value": 120, "unit": "mg/L"}, {"measurement": "Batch titer day 7", "setting": "[2]; selected in CD-Fusion w/o Pro + 1 mM Orn + 10 µg/ml Puromycin", "value": 159, "unit": "mg/L"}, {"measurement": "Batch titer day 7", "setting": "[2]; selected in CD-Fusion w/o Pro + 1 mM Orn", "value": 135, "unit": "mg/L"}, {"measurement": "Batch titer day 7", "setting": "[2]; selected in CD-Fusion w/o Pro + 5 mM Orn + 10 µg/ml Puromycin", "value": 38, "unit": "mg/L"}, {"measurement": "Batch titer day 7", "setting": "[2]; selected in CD-Fusion w/o Pro + 5 mM Orn", "value": 9, "unit": "mg/L"}]}]}
